# Patent US20240092784A1, “CONDENSED HETEROCYCLIC COMPOUND” (NISSAN CHEMICAL CORPORATION, priority 2020, published 2024)
# pIC50: −log10 of the molar value.
# Target: human SPR (Homo sapiens (Human), UniProt P35270)
# Test: Evaluation Example 2: Measurement of human SPR inhibitory activity (seven concentrations, sepiapterin absorbance at 420 nm)
# Format: biochemical
# Conditions: Evaluation Example 2, seven concentrations 0.14 nM to 100 nM, 240 minutes at room temperature, read-out: IC50
# Procedure, shortened: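 Reactions ran 240 min at room temperature in 100 mM Tris-HCl pH 7.5 with 0.01% BSA. They contained tag-cleaved, E. coli-expressed full-length human SPR (diluted to 150 ng/mL), seven compound concentrations from 0.14 to 100 nM, and sepiapterin/NADPH added as a 120 μM/160 μM solution. Inhibition was calculated from sepiapterin absorbance at 420 nm.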
# human SPR, sequence (P35270 whole entry): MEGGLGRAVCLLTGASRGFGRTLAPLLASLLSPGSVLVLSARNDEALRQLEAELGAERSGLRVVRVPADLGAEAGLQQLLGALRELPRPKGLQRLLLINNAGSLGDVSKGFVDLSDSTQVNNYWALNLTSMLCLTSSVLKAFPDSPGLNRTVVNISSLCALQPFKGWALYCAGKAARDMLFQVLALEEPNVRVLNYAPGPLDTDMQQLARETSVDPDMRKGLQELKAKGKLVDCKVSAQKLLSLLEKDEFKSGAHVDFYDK
row,SMILES,pIC50
1,"O=C(NC1CC1)c1c(O)n2ncc(/C=C/C(=O)N3CC4CCC(C3)O4)c2n(CC2(F)CC2)c1=O [Synthesis Example 378, (E)-3-(3-(8-Oxa-3-azabicyclo[3.2.1]octan-3-yl)-3-oxoprop-1-en-1-yl)-N-cyclopropyl-4-((1-fluorocyclopropyl)methyl)-7-hydroxy-5-oxo-4,5-dihydropyrazolo[1,5-a]pyrimidine-6-carboxamide]",9.10
2,"COC[C@H]1CCN(C(=O)/C=C/c2c(C)nn3c(O)c(C(=O)NC4CC4)c(=O)n(CC(C)C)c23)C1 [Synthesis Example 620, (S,E)-N-Cyclopropyl-7-hydroxy-4-isobutyl-3-(3-(3-(methoxymethyl)pyrrolidin-1-yl)-3-oxoprop-1-en-1-yl)-2-methyl-5-oxo-4,5-dihydropyrazolo[1,5-a]pyrimidine-6-carboxamide]",8.93
3,"CC(C)Cn1c(=O)c(C(=O)NC2CC2)c(O)n2ncc(/C=C/C(=O)N3CCC[C@@H]3C(C)(C)O)c12 [compound 589, (R,E)-N-Cyclopropyl-7-hydroxy-3-(3-(2-(2-hydroxypropan-2-yl)pyrrolidin-1-yl)-3-oxoprop-1-en-1-yl)-4-isobutyl-5-oxo-4,5-dihydropyrazolo[1,5-a]pyrimidine-6-carboxamide]",8.87
4,"CC(C)Cn1c(=O)c(C(=O)NC2CC2)c(O)n2ncc(/C=C/C(=O)N3CCOC(C)(C)C3)c12 [compound 489, (E)-N-Cyclopropyl-3-(3-(2,2-dimethylmorpholino)-3-oxoprop-1-en-1-yl)-7-hydroxy-4-isobutyl-5-oxo-4,5-dihydropyrazolo[1,5-a]pyrimidine-6-carboxamide]",9.03
5,"CCN(C)C(=O)/C=C/c1cnn2c(O)c(C(=O)NC3CC3)c(=O)n(CC(C)C)c12 [compound 522, (E)-N-Cyclopropyl-3-(3-(ethyl(methyl)amino)-3-oxoprop-1-en-1-yl)-7-hydroxy-4-isobutyl-5-oxo-4,5-dihydropyrazolo[1,5-a]pyrimidine-6-carboxamide]",9.11
6,"Cc1nn(C)c(C)c1CNC(=O)c1cnn2c(O)c(C(=O)NC3CC3)c(=O)n(CC(C)C)c12 [Synthesis Example 223, N6-Cyclopropyl-7-hydroxy-4-isobutyl-5-oxo-N3-((1,3,5-trimethyl-1H-pyrazol-4-yl)methyl)-4,5-dihydropyrazolo[1,5-a]pyrimidine-3,6-dicarboxamide]",8.95
7,"CN(CC#N)C(=O)c1cnc(Nc2cc3n(CC(C)(C)C)c(=O)c(C(=O)NC4CC4)c(O)n3n2)cn1 [Synthesis Example 358, 2-((5-((Cyanomethyl)(methyl)carbamoyl)pyrazin-2-yl)amino)-N-cyclopropyl-7-hydroxy-4-neopentyl-5-oxo-4,5-dihydropyrazolo[1,5-a]pyrimidine-6-carboxamide]",9.06
8,"CC(C)Cn1c(=O)c(C(=O)NC2CC2)c(O)n2ncc(/C=C/C(=O)NC3(C)CCOCC3)c12 [compound 492, (E)-N-Cyclopropyl-7-hydroxy-4-isobutyl-3-(3-((4-methyltetrahydro-2H-pyran-4-yl)amino)-3-oxoprop-1-en-1-yl)-5-oxo-4,5-dihydropyrazolo[1,5-a]pyrimidine-6-carboxamide]",9.05
9,"CC(C)(C)Cn1c(=O)c(C(=O)NC2CC2)c(O)n2nc(Nc3cncc(F)n3)cc12 [Synthesis Example 356, N-Cyclopropyl-2-((6-fluoropyrazin-2-yl)amino)-7-hydroxy-4-neopentyl-5-oxo-4,5-dihydropyrazolo[1,5-a]pyrimidine-6-carboxamide]",8.94
10,"CC(C)(C)Cn1c(=O)c(C(=O)NC2CC2)c(O)n2nc(Nc3cnc(C(=O)NCC(C)(C)O)cn3)cc12 [Synthesis Example 354, N-Cyclopropyl-7-hydroxy-2-((5-((2-hydroxy-2-methylpropyl)carbamoyl)pyrazin 2-yl)amino)-4-neopentyl-5-oxo-4,5-dihydropyrazolo[1,5-a]pyrimidine-6-carboxamide]",9.07
